“Also recorded” adds a separate entry of the source. Non-standard residues stand in square brackets, D forms with d. Residues, ends and D or L forms follow the SMILES beside them. No end group written: not given here. Hyp = O=C(O)[C@@H]1C[C@@H](O)CN1; 2Thi = N[C@@H](Cc1cccs1)C(=O)O; Gly(N-cHex) = O=C(O)CNC1CCCCC1 Where only a bound is given, the exact number is not on record here.

In data set [1] the target is T1, human B2R (Homo sapiens, UniProt P30411).
T1 construct: expressed in transfected cells; host or cells: QBI HEK 293A cells, lentiviral transduction with pCDH-BDKRB2, puromycin selection
T1 sequence (P30411 1-391): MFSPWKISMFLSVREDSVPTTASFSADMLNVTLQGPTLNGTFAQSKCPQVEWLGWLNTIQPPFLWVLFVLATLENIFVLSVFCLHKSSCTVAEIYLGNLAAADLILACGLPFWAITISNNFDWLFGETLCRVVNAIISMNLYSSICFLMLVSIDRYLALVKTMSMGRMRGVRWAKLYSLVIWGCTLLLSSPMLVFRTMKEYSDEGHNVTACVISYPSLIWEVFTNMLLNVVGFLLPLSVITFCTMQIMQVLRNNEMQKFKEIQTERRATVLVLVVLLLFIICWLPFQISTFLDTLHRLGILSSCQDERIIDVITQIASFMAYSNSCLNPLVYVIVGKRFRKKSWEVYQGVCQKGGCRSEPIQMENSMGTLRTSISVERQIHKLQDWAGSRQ
As to the kind of experiment: IP-One accumulation assay, human B2R-HEK293 cells. The class given is cell-based. The conditions noted are these: for EC50: IP1 accumulation, 30 min, room temperature, pH 7.4, 50 mM LiCl, human B2R-HEK293, 15,000 cells per well, mean of two independent experiments performed in duplicates, read-out: IP1 Assays (EC50; nM). The method, then:
The IP-One assay was performed on living, adherent human B2R-HEK293 cells according to the manufacturer’s recommendations (Cisbio, #62IPAPEB, Bedford, MA, USA). […] IP1-d2 and anti-IP1-Cryptate were added for at least 1 h. Fluorescence signal was measured using a Tecan M1000 plate reader (excitation at 320 nm and emission at 620 and 665 nm). EC50 values were calculated by curve-fitting using GraphPad Prism 8.2.

Data set [2] addresses T1, human B2R. As to the kind of experiment: Radioligand displacement binding assay, [3H]BK, human B2R-HEK293 cells. The conditions noted are these: for IC50: displacement of 1 nM [3H]BK, living adherent HEK293 cells stably expressing human B2R, serum-free DMEM, 1.5 h, 4 °C, mean of two independent experiments performed in duplicates; for binding affinity at human B2R, in words: HEK293 cells stably expressing human B2R. The method, then: The pCDH-BDKRB2 vector was produced from the plasmid pcDNA3.1/human BDKRB2 by PCR amplification using the primers 5′-[…]-3′ and 5′-[…]-3′, and introduced into pCDH-CMV-MCS-EF1 vector using BamHI et XbaI restriction sites. Lentiviruses were produced from pCDH-BDKRB2 vector in HEK293T cells using the X-tremeGENE HP transfection reagent (Millipore-Sigma, Oakville, ON, Canada). Lentiviruses were harvested 48 h post-transfection and used to infect QBI HEK 293A cells (ATCC). Transduced cells were selected using 5 µg/mL of puromycin (Thermo Fisher, Burlington, On, Canada).
Radioligand displacement binding assays were performed as we previously described, with slight modifications. HEK293 cells stably expressing human B2R were used for these assays (see text above). […] Radioactivity of samples was measured by a β-scintillation counter (PerkinElmer, Woodbridge, On, Canada). Binding affinities of peptides were expressed in terms of IC50 values—the molar concentration of an unlabeled agonist causing 50% displacement of specific binding (GraphPad Prism 8.2).

Data set [3] deals with GBM cells. The conditions noted are these: vs. temozolomide (TMZ); ref [33]; cited from earlier work.
The subject of data set [4] is BBB / brain cancer. On the set-up: method as in PMID 22709590. The conditions noted are these: ref [33]; cited from earlier work.
Data set [5] deals with BBB, irradiated mouse brain. The experiment in a line: DCE-MRI of BBB permeability to Gd-DTPA in irradiated mouse brain. The format is in vivo. The conditions noted are these: T1-weighted, 10 months after 45 Gy; Gd-DTPA alone or with NG291 50 µg/kg i.v. An excerpt: Female Balb/c mice were anesthetized using 1.5 L/min oxygen containing isoflurane (3% for induction, 2% for maintenance) and positioned on a custom-designed stereotactic bed compatible with the Leksell Gamma Knife Perfexion (Elekta AB, Stockholm, Sweden). A maximum dose of 45 Gy (23.1 Gy at the 50% isodose) was delivered through 4 mm collimators in the right hemisphere of the brain. Mouse and human brains have different sensitivities to radiation. This dose was selected because it allows the development and slow progression of radiation necrosis (approximatively appearing at 17 months post-irradiation in T2-weighted MRI; Figure 4), similar to what may be observed in brain cancer patients who received radiotherapy. After irradiation, mice were placed on a heating pad to recover, and were then returned to their cages.
For dynamic contrast-enhanced (DCE)-MRI imaging, pre-contrast T1-weighted imaging with an array of flip angles (α = 10°, 20°, 25°, 35°, 50°) was performed to acquire a T1 map with the following parameters: TR = 100 ms, TE = 2.79 ms, data matrix = 128 × 128, FOV = 20 × 20 mm^2; 1 average; 10 slices; 1 mm slice thickness. Then, a dynamic acquisition with the same parameters and a fixed angle at 30° was acquired before, during, and after injection of contrast agent. […]

Data set [6] has as its system angiotensin-converting enzyme (ACE, alias kininase II). The conditions noted are these: ref [26]; cited from earlier work.
Data set [7] deals with 4T1-luc mammary cancer cells, brain metastases in mice. The experiment in a line: 4T1-luc breast cancer brain metastasis model. The class given is in vivo, mouse. The conditions noted are these: NG291 50 μg/kg over 5 min i.v., single dose, 18 days, 6–8 animals. The method, then: Mice were anesthetized using 1.5 L/min oxygen-containing isoflurane (3% for induction, 2% for maintenance) and secured with tape in a supine position on a heating pad. A total of 1 × 10^5 4T1-Luc cells suspended in 100 µL of sterile saline was slowly injected into the left ventricle of the heart using a 1 mL Hamilton syringe mounted with a 30G needle as described previously. For BBB disruption experiments, a cannula was placed in the caudal vein and a single dose of NG291 (50 µg/kg/5 min) was infused into the caudal vein while simultaneously injecting the cancer cells intracardially. Successful intracardiac injection and tumor development was evaluated weekly by bioluminescence imaging. The development of brain metastatic tumor burden was determined by histological analysis.
Brain sections from mice inoculated with 4T1-Luc cells were stained with hematoxylin-eosin (H and E) for histological examination and metastases quantification using the NanoZoomer Digital Pathology software (Hamamatsu, NDP.view version 2.7.25). H and E staining was performed on brain sections every 20–30 µm. The relative total area and number of metastatic foci in the entire brain section were calculated from manual delineation of metastases in digital images of H and E-stained brain slides using the NanoZoomer NDP.view2 viewing software free hand tool. […] A total of 68 slices were analyzed.

Data set [8] has as its system normal mice. As to the kind of experiment: Tolerability / blood pressure effect in anesthetized normal mice. The format is in vivo, mouse.
For data set [9], the system named is leucocytes, brain. To be noted: exogenous BK; ref [21],[24]; cited from earlier work.
The test system of data set [10] is BBB / BTB. On the set-up: method as in 2 sources, one per row (each row's own in cited_ref): ref [2],[13] = [2]; PMID 15153840; doi:10.1177/107327480401100304; 2. Black K.L. Ningaraj N.S. Modulation of brain tumor capillaries for enhanced drug delivery selectively to brain tumor Cancer Control. 2004 11 165 173 10.1177/107327480401100304 15153840 || [13]; PMID 11286321; doi:10.2165/00003088-200140020-00003; 13. Emerich D.F. Dean R.L. Osborn C. Bartus R.T. The development of the bradykinin agonist labradimil as a means to increase the permeability of the blood-brain barrier: From concept to clinical evalu ||| ref [2],[46],[47] = [2]; PMID 15153840; doi:10.1177/107327480401100304; 2. Black K.L. Ningaraj N.S. Modulation of brain tumor capillaries for enhanced drug delivery selectively to brain tumor Cancer Control. 2004 11 165 173 10.1177/107327480401100304 15153840 || [46]; PMID 20146088; doi:10.1007/s11060-010-0124-x; 46. Liu L.B. Xue Y.X. Liu Y.H. Bradykinin increases the permeability of the blood-tumor barrier by the caveolae-mediated transcellular pathway J. Neurooncol. 2010 99 187 194 10.1007/s11060-010-0124-x || [47]; PMID 12023511; doi:10.1124/jpet.301.3.838; 47. Ningaraj N.S. Rao M. Hashizume K. Asotra K. Black K.L. Regulation of blood-brain tumor barrier permeability by calcium-activated potassium channels J. Pharmacol. Exp. Ther. 2002 301 838 851 10.112. The conditions noted are these: increased numbers of pinocytotic vesicles or caveolae; ref [2],[46],[47]; cited from earlier work. An excerpt:
Kinin effects are mediated through specific activation of two types of receptors, namely, the kinin B1 (B1R) and B2 receptors (B2R), both belonging to the G-protein-coupled receptor family. […] The strategy exploiting targeted stimulation of the kinin receptors could perhaps ...

Broadly, the EC50 is the concentration needed to bring the measured effect to its halfway point. The IC50 is the concentration at which inhibition is half-maximal. Take `N=C(N)NCCC[C@@H](N)C(=O)N[C@@H](CCCNC(=N)N)C(=O)N1CCC[C@H]1C(=O)N1C[C@H](O)C[C@H]1C(=O)NCC(=O)N[C@H](C(=O)N[C@@H](CO)C(=O)N1[C@H](C(=O)N[C@H](C(=O)N[C@@H](CCCNC(=N)N)C(=O)O)C2Cc3ccccc3C2)C[C@@H]2CCCC[C@@H]21)C1Cc2ccccc2C1` [B9972, DArg[Hyp^3, Igl^5, Oic^7, Igl^8]-BK]: in data set [1], the EC50 turned out to be 158 nM. The IC50 in data set [2] was 199 nM.
With `COc1cccc2c1C(=O)c1c(O)c3c(c(O)c1C2=O)C[C@@](O)(C(=O)CO)C[C@@H]3O[C@H]1C[C@H](N)[C@H](O)[C@H](C)O1` [DOX, doxorubicin], the “potency for killing GBM cells in vitro” value in [3] is “more potent than temozolomide (TMZ) for killing GBM cells in vitro”. The “BBB crossing and in vivo efficacy in brain cancer” value in data set [4] was “does not readily cross the BBB and so shows poor efficacy in in vivo models”.
Consider `CNC[C@H](O)[C@@H](O)[C@H](O)[C@H](O)CO.CNC[C@H](O)[C@@H](O)[C@H](O)[C@H](O)CO.O=C([O-])CN(CCN(CC(=O)[O-])CC(=O)O)CCN(CC(=O)[O-])CC(=O)O.[Gd+3]` [Gd-DTPA], for which the “contrast enhancement in the irradiated hemisphere” value in data set [5] is “Minimal contrast enhancement was observed in the irradiated hemisphere”.
With `N=C(N)NCCC[C@H](NC(=O)[C@H](Cc1cccs1)NC(=O)CN(C(=O)[C@H](CO)NC(=O)[C@H](Cc1cccs1)NC(=O)CNC(=O)[C@@H]1C[C@@H](O)CN1C(=O)[C@@H]1CCCN1C(=O)[C@@H](N)CCCNC(=N)N)C1CCCCC1)C(=O)O` [NG291, [Hyp^3, Thi^5, ^NChg^7, Thi^8]-BK] (H-RP[Hyp]G[2Thi]S[Gly(N-cHex)][2Thi]R-OH), the EC50 in data set [1] is 0.9 nM. Also, in [6], the “protection against enzymatic degradation by ACE” value is “fully protected against enzymatic degradation by the angiotensin-converting enzyme”. The molecule also registered an IC50 in data set [2] of 3 nM. Further, the “effect on brain tumor burden and number of metastases, in words” value in [7] was “did not significantly increase brain tumor burden; also recorded: no difference in terms of both area and number of metastases”. The hypotensive effect entry in data set [8] (high dose i.v. NG291, ketamine/xylazine-anesthetized normal mice, strong but reversible, not shown) was “about -35 mmHg”. In addition, the tolerability result in data set [8] (high dose i.v. NG291, normal mice) is given as “generally well-tolerated”.
Take `N=C(N)NCCC[C@@H](N)C(=O)N[C@H](Cc1ccccc1)C(=O)N1CCC[C@@H]1C(=O)N[C@H](CO)C(=O)N[C@H](Cc1ccccc1)C(=O)NCC(=O)N1CCC[C@@H]1C(=O)N1CCC[C@@H]1C(=O)N[C@H](CCCNC(=N)N)C(=O)O` [RI-BK, D(retroinverso)-BK] (H-[dR][dF][dP][dS][dF]G[dP][dP][dR]-OH; N-terminus and C-terminus assumed): in [1] (IP1, HEK293 cells stably expressing human B2R), the “agonist activity/potency at human B2R, in words” value is “no binding affinity and agonist activity at human B2R”. For the same molecule, in [1], the EC50 was > 10000 nM. Moreover, in [2], the “binding affinity at human B2R, in words” value is given as “no binding affinity” and the IC50 is > 10000 nM.
In the case of “RPPGFSPFR [BK, H-Arg^1-Pro^2-Pro^3-Gly^4-Phe^5-Ser^6-Pro^7-Phe^8-Arg^9-OH]”, the “binding affinity at human B2R, in words” value in data set [2] is “higher binding affinity (IC50)”. Further, the “brain trafficking of IV-infused leucocytes” value in data set [9] is on record as “can increase brain trafficking of IV-infused leucocytes”. Moreover, the “BTB permeability by the transcellular pathway” value in data set [10] is reported as “may increase BTB permeability, as well by means of the transcellular pathway”.

Source of the values: PMC7650794, “Pharmacological Modulation of Blood–Brain Barrier Permeability by Kinin Analogs in Normal and Pathologic Conditions” (Pharmaceuticals, 2020).
